Reference: PubChem BioAssay (NCI)
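The concentration for 50% growth inhibition is given as GI50. Definition used: TGI = concentration required for complete inhibition of growth.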

Tests used:
Assay in all cases: DTP human tumour cell line panel, 384-well format
[1] = test system: NCI-H226 lung
[2] = test system: UO-31 renal
[3] = test system: PC-3 prostate
[4] = test system: SK-MEL-2 melanoma
[5] = test system: OVCAR-3 ovarian
[6] = test system: HOP-62 NSCLC
[7] = test system: K-562 leukemia
[8] = test system: A549 NSCLC
[9] = test system: RXF 393 renal
[10] = test system: SF-268 CNS
[11] = test system: SK-MEL-28 melanoma
[12] = test system: SF-295 CNS
[13] = test system: COLO 205 colon
[14] = test system: SW-620 colon
[15] = test system: HS 578T breast
[16] = test system: SN12C renal
[17] = test system: TK-10 renal
[18] = test system: KM12 colon
[19] = test system: SNB-19 CNS
[20] = test system: SR leukemia
[21] = test system: MDA-MB-231 breast
[22] = test system: HT29 colon
[23] = test system: 786-0 renal
[24] = test system: LOX IMVI melanoma
[25] = test system: MDA-MB-435 melanoma
[26] = test system: HCC-2998 colon
[27] = test system: SF-539 CNS
[28] = test system: A498 renal
[29] = test system: MDA-MB-468 breast
[30] = test system: NCI-H23 lung
[31] = test system: DU-145 prostate
[32] = test system: CCRF-CEM leukemia
[33] = test system: UACC-257 melanoma
[34] = test system: HL-60(TB) leukemia
[35] = test system: U251 glioblastoma
[36] = test system: M14 melanoma
[37] = test system: SK-OV-3 ovarian
[38] = test system: NCI-H322M lung
[39] = test system: IGROV1 ovarian
[40] = test system: OVCAR-5 ovarian
[41] = test system: NCI-H460 NSCLC
[42] = test system: NCI-H522 lung
[43] = test system: HCT-15 colon
[44] = test system: BT-549 breast
[45] = test system: EKVX NSCLC
[46] = test system: SNB-75 CNS
[47] = test system: UACC-62 melanoma

SMILES: Cc1cc2c(cc1C)NC1=C(N2)OC(c2c3ccccc3cc3ccccc23)C1=O (centres undefined)
- GI50 [1]: 743 nM
- TGI [1]: 1860 nM
- GI50 [2]: 1940 nM
- TGI [2]: 9300 nM
- GI50 [3]: 422 nM
- TGI [3]: 1440 nM
- GI50 [4]: 224 nM
- TGI [4]: 415 nM
- GI50 [5]: 237 nM
- TGI [5]: 582 nM
- GI50 [6]: 325 nM
- TGI [6]: 825 nM
- GI50 [7]: 208 nM
- TGI [7]: 491 nM
- GI50 [8]: 626 nM
- TGI [8]: 2200 nM
- GI50 [9]: 285 nM
- TGI [9]: 513 nM
- GI50 [10]: 354 nM
- TGI [10]: 1050 nM
- GI50 [11]: 573 nM
- TGI [11]: 4410 nM
- GI50 [12]: 208 nM
- TGI [12]: 495 nM
- GI50 [13]: 786 nM
- TGI [13]: 1680 nM
- GI50 [14]: 454 nM
- TGI [14]: 7470 nM
- GI50 [15]: 178 nM
- TGI [15]: 355 nM
- GI50 [16]: 652 nM
- TGI [16]: 4130 nM
- GI50 [17]: 548 nM
- TGI [17]: 7540 nM
- GI50 [18]: 310 nM
- TGI [18]: 964 nM
- GI50 [19]: 397 nM
- TGI [19]: 1540 nM
- GI50 [20]: 189 nM
- TGI [20]: 340 nM
- GI50 [21]: 554 nM
- TGI [21]: 2810 nM
- GI50 [22]: 303 nM
- TGI [22]: 988 nM
- GI50 [23]: 261 nM
- TGI [23]: 630 nM
- GI50 [24]: 361 nM
- TGI [24]: 1350 nM
- GI50 [25]: 217 nM
- TGI [25]: 425 nM
- GI50 [26]: 688 nM
- TGI [26]: 1570 nM
- GI50 [27]: 170 nM
- TGI [27]: 380 nM
- GI50 [28]: 319 nM
- TGI [28]: 924 nM
- GI50 [29]: 218 nM
- TGI [29]: 436 nM
- GI50 [30]: 288 nM
- TGI [30]: 763 nM
- GI50 [31]: 429 nM
- TGI [31]: 1430 nM
- GI50 [32]: 194 nM
- TGI [32]: 341 nM
- GI50 [33]: 716 nM
- TGI [33]: 3290 nM
- GI50 [34]: 212 nM
- TGI [34]: 363 nM
- GI50 [35]: 281 nM
- TGI [35]: 691 nM
- GI50 [36]: 290 nM
- TGI [36]: 653 nM
- GI50 [37]: 253 nM
- TGI [37]: 732 nM
- GI50 [38]: 1220 nM
- TGI [38]: 7460 nM
- GI50 [39]: 953 nM
- TGI [39]: 2630 nM
- GI50 [40]: 1300 nM
- TGI [40]: 5220 nM
- GI50 [41]: 260 nM
- TGI [41]: 654 nM
- GI50 [42]: 192 nM
- TGI [42]: 385 nM
- GI50 [43]: 261 nM
- TGI [43]: 711 nM
- GI50 [44]: 270 nM
- TGI [44]: 581 nM
- GI50 [45]: 431 nM
- TGI [45]: 6440 nM
- GI50 [46]: 381 nM
- TGI [46]: 1230 nM
- GI50 [47]: 329 nM
- TGI [47]: 1250 nM
